Consider 23 compounds from US5622962A, “5α-reductase inhibitors” (priority 1995, dated 1997).

The structures appear in SMILES notation. Values joined by “and” are separate entries in the source; they are usually repeats but may differ in a detail not shown here. Identical values can stand only once. Like-named read-outs stand apart in the source and are kept apart here.

The target in assay [1] is T1, Type II 5α-Reductase from Human Prostate (Homo sapiens, UniProt P31213).
T1 construct: The same procedure as above was used for preparations using tissue from prostate surgery; from tissue; host or cells: human prostate tissue from surgery, homogenate, 100,000×g pellet
T1 sequence (P31213 1-254): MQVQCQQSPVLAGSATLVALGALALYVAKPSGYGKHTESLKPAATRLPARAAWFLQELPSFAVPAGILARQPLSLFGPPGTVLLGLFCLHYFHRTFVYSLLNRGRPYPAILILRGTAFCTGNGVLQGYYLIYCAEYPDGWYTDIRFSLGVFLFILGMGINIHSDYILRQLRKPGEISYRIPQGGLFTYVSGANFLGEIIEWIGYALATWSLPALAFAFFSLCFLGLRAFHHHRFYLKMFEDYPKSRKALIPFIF
In words: Human Type II 5α-reductase assay (conversion of [3H]-testosterone to 5α-reduced metabolites). The assay is classed as biochemical.

Assay [2] deals with T2, Type I 5α-Reductase from Human Scalp (Homo sapiens, UniProt P18405).
T2 construct: Scalp punch biopsies from graft recipient sites were obtained from human hair transplant procedures; from tissue; host or cells: human scalp punch biopsies (hair transplant graft recipient sites), homogenate, 100,000×g pellet
T2 sequence (P18405 1-259): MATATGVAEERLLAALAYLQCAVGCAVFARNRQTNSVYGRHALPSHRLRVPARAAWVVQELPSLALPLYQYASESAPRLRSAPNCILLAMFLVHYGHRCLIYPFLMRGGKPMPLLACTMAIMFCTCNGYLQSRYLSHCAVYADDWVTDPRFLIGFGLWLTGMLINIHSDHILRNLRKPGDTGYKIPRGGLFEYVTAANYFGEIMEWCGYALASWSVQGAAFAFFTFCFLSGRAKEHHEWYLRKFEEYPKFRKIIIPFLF
In words: Human Type I 5α-reductase assay (conversion of [3H]-testosterone to 5α-reduced metabolites). Type of assay: biochemical.

[3] abbreviates: pH 5.5, 0.3 μM, sodium acetate pH 5.5, 25°, 30 min, compared to control reaction mixtures, read-out: percent inhibition of Type II AR.
Setting [4] is: pH 7.5, 0.3 μM, 50 nM [3H]-testosterone, pH 7.5, 25°, 180 min, compared to control reaction mixtures, read-out: percent inhibition of Type I AR.

What is called inhibition is the relative decrease from the control value, in per cent. Consider `CN1C(=O)CC[C@]2(C)c3ccc(-c4ccc(F)c(C(F)(F)F)c4)cc3CC[C@@H]12` [Example 46, (+)-(4aR)-(10bR)-4-methyl-8-(4-fluoro-3-trifluoromethylphenyl)-10b-methyl-1,2,3,4,4a,5,6,10b-octahydrobenzo[f]-quinolin-3-one], for which the inhibition at 0.3 µM in assay [1] (setting [3]) is 31%; in assay [2] (setting [4]) it was 3%.

`CN1C(=O)CC[C@]2(C)c3ccc(Sc4cnc5ccccc5c4)cc3CC[C@@H]12` [Example 106, (4aR)-(10bR)-4,10b-dimethyl-8-(3-quinolinylthio)-1,2,3,4,4a,5,6,10b-octahydrobenzo[f]quinolin-3-one]: the inhibition at 0.3 µM in assay [1] (setting [3]) was 39%; in assay [2] (setting [4]), 73%.

As for `Cc1ccc(C(F)(F)F)c2sc(Sc3ccc4c(c3)CC[C@H]3N(C)C(=O)CC[C@]43C)nc12` [Example 190, (+)-(4aR)-(10bR)-4-methyl-8-(4-methyl-7-trifluoromethyl-2-benzothiazolylthio)-10b-methyl-1,2,3,4,4a,5,6,10b-octahydrobenzo[f]quinolin-3-one], the results for the inhibition at 0.3 µM in assay [1] (setting [3]) and in assay [2] (setting [4]) were 26% and 76%, respectively.

`CC(C)c1cccc2sc(Sc3ccc4c(c3)CC[C@H]3N(C)C(=O)CC[C@]43C)nc12` [Example 157, (+)-(4aR)-(10bR)-4-methyl-8-(2-[4-isopropyl]benzothiazolylthio)-10b-methyl-1,2,3,4,4a,5,6,10b-octahydrobenzo[f]-quinolin-3-one]: the inhibition at 0.3 µM in assay [1] (setting [3]) was 79%; in assay [2] (setting [4]), 88%.

For the compound `C[C@]12CCC(=O)N[C@@H]1CCc1cc(Sc3cccc4cccnc34)ccc12` [Example 20, (+)-(4aR)-(10bR)-8-(8-quinolinylthio)-10b-methyl-1,2,3,4,4a,5,6,10b-octahydrobenzo[f]quinolin-3-one], the results for the inhibition at 0.3 µM in assay [1] (setting [3]) and in assay [2] (setting [4]) were 48% and 22%, respectively.

Consider `Cc1cccc(Sc2ccc3c(c2)CC[C@H]2N(C)C(=O)CC[C@]32C)c1` [Example 102, (+)-(4aR)-(10bR)-4,10b-dimethyl-8-(3-methylphenylthio)-1,2,3,4,-4a,5,6,10b-octahydrobenzo[f]quinolin-3-one], for which the inhibition at 0.3 µM was 61% in assay [1] (setting [3]) and 92% in assay [2] (setting [4]).

Regarding `CN1C(=O)CC[C@]2(C)c3ccc(Sc4ccc5nc6ccccc6c(=O)n5n4)cc3CC[C@@H]12` [Example 176, (+)-(4aR)-(10bR)-4-methyl-8-(10-oxo-10H-2-pyridazino[6,1-b]-quinazolinylthio)-10b-methyl-1,2,3,4,4a,5,6,10b-octahydrobenzo[f]quinolin-3-one], the inhibition at 0.3 µM came to 15% in assay [1] (setting [3]) and 25% in assay [2] (setting [4]).

Regarding `CN1C(=O)CC[C@]2(C)c3ccc(Sc4nc5c(Cl)cccc5s4)cc3CC[C@@H]12` [Example 164, (+)-(4aR)-(10bR)-4-methyl-8-(4-chloro-2-benzothiazolylthio)-10b-methyl-1,2,3,4,4a,5,6,10b-octahydrobenzo[f]quinolin-3-one], the “percent inhibition of Type II AR” value in assay [1] (0.3 μM, sodium acetate pH 5.5, 25°, 30 min, compared to control reaction mixtures) was 85% and 79%. Besides, the inhibition at 0.3 µM in assay [1] (setting [3]) was found to be 86%; in assay [2] (setting [4]), 85%. For the same compound, in assay [2] (0.3 μM, 50 nM [3H]-testosterone, pH 7.5, 25°, 180 min, compared to control reaction mixtures), the “percent inhibition of Type I AR” value came to 87%.

Turning to `CN1C(=O)CC[C@]2(C)c3ccc(-c4nc5c(F)cccc5s4)cc3CC[C@@H]12` [Example 261, (+)-(4aR)-(10bR)-4-methyl-8-(2-[4-fluoro]benzothiazolyl)-10b-methyl-1,2,3,4,4a,5,6,10b-octahydrobenzo[f]quinolin-3-one], the inhibition at 0.3 µM in assay [1] (setting [3]) worked out at 49%; in assay [2] (setting [4]), 86%.

`CN1C(=O)CC[C@]2(C)c3ccc(-c4ccc5oc(=O)ccc5c4)cc3CC[C@@H]12` [Example 248, (+)-(4aR)-(10bR)-4-methyl-8-(2-oxo-1-benzopyran-6-yl)-10b-methyl-1,2,3,4,4a,5,6,10b-octahydrobenzo[f]quinolin-3-one]: the inhibition at 0.3 µM is 22% in assay [1] (setting [3]) and 54% in assay [2] (setting [4]).

`C[C@]12CCC(=O)N[C@@H]1CCc1cc(Sc3cnc4ccccc4c3)ccc12` [Example 18, (4aR)-(10bR)-8-(3-quinolinylthio)-10b-methyl-1,2,3,4,4a,5,6,10b-octahydrobenzo[f]quinolin-3-one]: the values for the inhibition at 0.3 µM in assay [1] (setting [3]) and in assay [2] (setting [4]) were 15% and 7%, respectively.

On to `CN1C(=O)CC[C@]2(C)c3ccc(-c4ccc5c6c(cccc46)C(=O)N(C4CCN(Cc6ccccc6)CC4)C5=O)cc3CC[C@@H]12` [Example 246, (+)-(4aR)-(10bR)-4-methyl-8-[2-(4-[N-benzyl]piperidinyl)-1H-benzo<de>isoquinolin-6-yl-1,3-(2H)dione]-10b-methyl-1,2,3,4,4a,5,6,10b-octahydrobenzo[f]quinolin-3-one], for which the figures for the inhibition at 0.3 µM in assay [1] (setting [3]) and in assay [2] (setting [4]) were 45% and 92%, respectively.

In the case of `Cc1ccccc1-c1ccc2c(c1)CC[C@H]1N(C)C(=O)CC[C@]21C` [Example 40, (+)-(4aR)-(10bR)-4-methyl-8-(2-methylphenyl)-10b-methyl-1,2,3,4,4a,5,6,10b-octahydrobenzo[f]quinolin-3-one], the inhibition at 0.3 µM in assay [1] (setting [3]) is 35%; in assay [2] (setting [4]), 90%.

Regarding `CN1C(=O)CC[C@]2(C)c3ccc(-c4cccc(C(=O)NC(C)(C)C)c4)cc3CC[C@@H]12` [Example 34, (+)-(4aR)-(10bR)-4-methyl-8-(3-t-butylcarboxamidophenyl)-10b-methyl-1,2,3,4,4a,5,6,10b-octahydrobenzo[f]quinolin-3-one], the inhibition at 0.3 µM in assay [1] (setting [3]) came out at 5%; in assay [2] (setting [4]), 13%.

Take `C[C@]12CCC(=O)N[C@@H]1CCc1cc(Sc3cccc(F)c3)ccc12` [Example 16, (+)-(4aR)-(10bR)-8-(3-fluorophenylthio)-10b-methyl-1,2,3,4,4a,5,6,10b-octahydrobenzo[f]quinolin-3-one]: the inhibition at 0.3 µM was 28% in assay [1] (setting [3]) and 14% in assay [2] (setting [4]).

In the case of `CN1C(=O)CC[C@]2(C)c3ccc(Sc4ccc(C(F)(F)F)cn4)cc3CC[C@@H]12` [Example 155, (+)-(4aR)-(10bR)-4-methyl-8-(2-[5-trifluoromethyl]pyridylthio)-10b-methyl-1,2,3,4,4a,5,6,10b-octahydrobenzo[f]-quinolin-3-one], the inhibition at 0.3 µM in assay [1] (setting [3]) is 60%; in assay [2] (setting [4]), 58%.

For `CN1C(=O)CC[C@]2(C)c3ccc(Sc4nccc5ccccc45)cc3CC[C@@H]12` [Example 113, (4aR)-(10bR)-4,10b-dimethyl-8-(1-isoquinolinylthio)-1,2,3,4,4a,5,6,10b-octahydrobenzo[f]quinolin-3-one], the inhibition at 0.3 µM in assay [1] (setting [3]) was 51%; in assay [2] (setting [4]), 70%.

As to `CN1C(=O)CC[C@]2(C)c3ccc(Sc4ccc5ccccc5n4)cc3CC[C@@H]12` [Example 107, (+)-(4aR)-(10bR)-4,10b-dimethyl-8-(2-quinolinylthio)-1,2,3,4,-4a,5,6,10b-octahydrobenzo[f]quinolin-3-one], the inhibition at 0.3 µM was found to be 83% in assay [1] (setting [3]) and 80% in assay [2] (setting [4]).

For `CN1C(=O)CC[C@]2(C)c3ccc(CSc4nc5ccccc5s4)cc3CC[C@@H]12` [Example 138, (4aR)-(10bR)-8-(2-benzothiazole)thiomethyl-4,10b-dimethyl-1,2,3,4,4a,5,6,10b-octahydrobenzo[f]quinolin-3-one], the inhibition at 0.3 µM in assay [1] (setting [3]) came to 26%; in assay [2] (setting [4]) it was 88%.

In the case of `CN1C(=O)CC[C@]2(C)c3ccc(-c4cnccn4)cc3CC[C@@H]12` [Example 253, (+)-(4aR)-(10bR)-4-methyl-8-(2-pyrazinyl)-10b-methyl-1,2,3,4,4a,5,6,10b-octahydrobenzo[f]quinolin-3-one], the inhibition at 0.3 µM in assay [1] (setting [3]) amounted to 32%; in assay [2] (setting [4]), 5%.

On to `COc1ccc(-c2c(-c3ccccc3)c(Sc3ccc4c(c3)CC[C@H]3N(C)C(=O)CC[C@]43C)nc3ccccc23)cc1` [Example 179, (+)-(4aR)-(10bR)-4-methyl-8-[3-phenyl-4-(4-methoxyphenyl)-2-quinolinylthio]-10b-methyl-1,2,3,4,4a,5,6, 10b-octahydrobenzo[f]quinolin-3-one], for which the results for the inhibition at 0.3 µM in assay [1] (setting [3]) and in assay [2] (setting [4]) were 28% and 61%, respectively.

As to `CN1C(=O)CC[C@]2(C)c3ccc(-c4ccc(F)cc4C(F)(F)F)cc3CC[C@@H]12` [Example 31, (+)-(4aR)-(10bR)-4-methyl-8-(2-trifluoromethyl-4-fluorophenyl)-10b-methyl-1,2,3,4,4a,5,6,10b-octahydrobenzo[f]-quinolin-3-one], the inhibition at 0.3 µM in assay [1] (pH 5.5, read-out: percent inhibition of Type II AR) worked out at 22%; in assay [2] (pH 7.5, read-out: percent inhibition of Type I AR), 84%.

Take `CN1C(=O)CC[C@]2(C)c3ccc(Sc4nc5c(F)cccc5s4)cc3CC[C@@H]12` [Example 162, (+)-(4aR)-(10bR)-4-methyl-8-(4-fluoro-2-benzothiazolylthio)-10b-methyl-1,2,3,4,4a,5,6,10b-octahydrobenzo[f]quinolin-3-one]: the inhibition at 0.3 µM is 87% in assay [1] (setting [3]) and 79% in assay [2] (setting [4]).
